Legend:
Cholinesterase = Cholinesterase (Homo sapiens, UniProt P06276); test: Inhibition of human serum BChE
[1] = Cytotoxicity against CEM/0 cells; assay type: cell-based, CCRF-CEM; conditions: human
[2] = system: Human immunodeficiency virus 2; test: Antiviral activity against H1V2 in CEM/0 cells; assay type: functional, organism-based
[3] = system: Human immunodeficiency virus 1; test: Antiviral activity against HIV1 in CEM/0 cells; assay type: functional, organism-based
[4] = Hydrolytic stability in 25 mM phosphate buffer at pH 7.3, 37 degC; assay type: physicochemical; conditions: for half-life: phosphate buffer; for t1/2: buffer
[5] = system: Human immunodeficiency virus 2; test: Antiviral activity against H1V2 in TK-deficient CEM cells; assay type: functional, organism-based, CCRF-CEM
[6] = Human immunodeficiency virus 2, CCRF-CEM
[7] = Human immunodeficiency virus 1, CCRF-CEM

Sequence of Cholinesterase (P06276 whole entry): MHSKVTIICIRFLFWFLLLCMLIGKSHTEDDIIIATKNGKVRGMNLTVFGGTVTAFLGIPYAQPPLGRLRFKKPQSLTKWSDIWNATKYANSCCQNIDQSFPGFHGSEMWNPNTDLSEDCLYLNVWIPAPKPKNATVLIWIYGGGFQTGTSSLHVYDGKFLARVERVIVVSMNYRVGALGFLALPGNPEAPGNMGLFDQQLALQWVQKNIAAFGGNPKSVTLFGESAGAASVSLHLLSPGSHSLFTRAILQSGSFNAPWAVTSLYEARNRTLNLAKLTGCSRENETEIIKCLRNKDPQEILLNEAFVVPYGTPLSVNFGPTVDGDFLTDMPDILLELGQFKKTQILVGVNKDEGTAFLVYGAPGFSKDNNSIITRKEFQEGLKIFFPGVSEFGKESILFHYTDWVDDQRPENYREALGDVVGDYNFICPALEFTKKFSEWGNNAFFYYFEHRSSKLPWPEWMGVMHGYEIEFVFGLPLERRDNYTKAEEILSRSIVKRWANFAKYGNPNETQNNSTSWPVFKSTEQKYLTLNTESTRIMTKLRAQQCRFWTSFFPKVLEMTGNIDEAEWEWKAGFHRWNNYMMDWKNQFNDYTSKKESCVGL

Structure (SMILES)	IC50 (Cholinesterase) [µM]	CC50 ([1]; CEM/0 cells) [µM]	EC50 [2, 6] [nM]	EC50 [3, 7] [nM]	half-life [4] [min]	EC50 [5, 6] [nM]	CC50 ([1]; ccrf-cem) [µM]	EC50 ([2]; cem/0) [nM]	EC50 ([3]; cem/0) [nM]	EC50 ([5]; ccrf-cem) [nM]	t1/2 [4] [h]
Cc1cn([C@H]2C=C[C@@H](COP(=O)(O)OCc3cccc(-c4cccc5c4OP(=O)(OC[C@@H]4C=C[C@H](n6cc(C)c(=O)[nH]c6=O)O4)OC5)c3O)O2)c(=O)[nH]c1=O (stereo not given in full)	2.3	–	–	–	–	–	–	–	–	–	–
Cc1cn([C@H]2C=C[C@@H](COP3(=O)OCc4cccc(-c5ccccc5)c4O3)O2)c(=O)[nH]c1=O (stereo not given in full)	0.35	22	270	130	306	280	–	–	–	–	–
Cc1cc(CO)c(O)c(-c2cc(C)cc(CO)c2O)c1	> 50	> 150	> 150000	> 150000	–	–	–	–	–	–	–
Cc1cc2c(c(-c3cc(C)cc4c3OP(=O)(OC[C@@H]3C=C[C@H](n5cc(C)c(=O)[nH]c5=O)O3)OC4)c1)OP(=O)(OC[C@@H]1C=C[C@H](n3cc(C)c(=O)[nH]c3=O)O1)OC2 (stereo not given in full)	> 50	67.1	410	370	720	1600	–	–	–	–	–
OCc1cccc(-c2cccc(CO)c2O)c1O	> 50	> 150	> 150000	> 150000	–	–	–	–	–	–	–
Cc1cn([C@H]2C=C[C@@H](COP3(=O)OCc4cccc(-c5cccc6c5OP(=O)(OC[C@@H]5C=C[C@H](n7cc(C)c(=O)[nH]c7=O)O5)OC6)c4O3)O2)c(=O)[nH]c1=O (single isomer, unassigned; diastereomer 1)	14	–	–	–	–	–	107	300	250	3330	–
Cc1cn([C@H]2C=C[C@@H](COP3(=O)OCc4cccc(-c5cccc6c5OP(=O)(OC[C@@H]5C=C[C@H](n7cc(C)c(=O)[nH]c7=O)O5)OC6)c4O3)O2)c(=O)[nH]c1=O (single isomer, unassigned; diastereomer 2)	> 50	–	–	–	–	–	90.7	220	210	2370	–
Cc1cn([C@H]2C=C[C@@H](COP3(=O)OCc4cccc(-c5cccc6c5OP(=O)(OC[C@@H]5C=C[C@H](n7cc(C)c(=O)[nH]c7=O)O5)OC6)c4O3)O2)c(=O)[nH]c1=O (stereo in doubt; 6)	40	–	270	190	–	2330	27.8	–	–	–	–
Cc1cn([C@H]2C=C[C@@H](COP3(=O)OCc4cccc(-c5cccc(CO)c5O)c4O3)O2)c(=O)[nH]c1=O (stereo in doubt; 29(Rp))	> 50	–	–	–	–	–	69.4	500	270	700	1.4
Cc1cn([C@H]2C=C[C@@H](COP3(=O)OCc4cccc(-c5cccc(CO)c5O)c4O3)O2)c(=O)[nH]c1=O (stereo in doubt; 29(Sp))	0.79	78.7	400	340	66	–	–	–	–	1500	–
Cc1cn([C@H]2C=C[C@@H](COP3(=O)OCc4cccc(-c5cccc(CO)c5O)c4O3)O2)c(=O)[nH]c1=O (stereo in doubt; 29)	2.3	–	–	–	–	–	–	–	–	–	1.3
Cc1cn([C@H]2C=C[C@@H](COP3(=O)OCc4cccc(-c5cccc6c5OC(C)(C)OC6)c4O3)O2)c(=O)[nH]c1=O (stereo in doubt; 33(Rp))	> 50	–	–	–	–	–	55.3	–	360	550	21
Cc1cn([C@H]2C=C[C@@H](COP3(=O)OCc4cccc(-c5cccc6c5OC(C)(C)OC6)c4O3)O2)c(=O)[nH]c1=O (stereo in doubt; 33(Sp))	3.6	89.3	400	500	840	–	–	–	–	3000	–
Cc1cn([C@H]2C=C[C@@H](COP3(=O)OCc4cccc(-c5cccc6c5OC(C)(C)OC6)c4O3)O2)c(=O)[nH]c1=O (stereo in doubt; 33)	4.7	–	–	–	–	–	65	–	350	1070	16
Cc1cn([C@H]2C=C[C@@H](CO)O2)c(=O)[nH]c1=O [STAVUDINE]	–	105	190	250	–	51000	–	–	–	–	–

From ChEMBL document CHEMBL1142967, “Bis-cycloSal-d4T-monophosphates: drugs that deliver two molecules of bioactive nucleotides” (J Med Chem, 2007)
